Measured values: patent US5506102A (priority 1993, dated 1996)

Key:
human estrogen receptor = assay: ER transcriptional activity on MMTV-ERE-LUC, CV-1 cells, ER co-expressed with PR-B; type: cell-based; details: 10^-7 M 17β-estradiol, FIG. 11D
Protocol: All values were normalized for transfection efficiency by simultaneous estimation of luciferase and β-galactocidase activities. The relative luciferase activity is calculated by dividing the normalized luciferase value at a given point by that obtained in the absence of transfected receptor or ligand. Data shown represent the mean +/- the average deviation from the mean of triplicate estimations.
Vegeto et al., supra. Cells were plated into 96-well tissue culture plates. The vector DNA was introduced into the CV-1 cells using calcium phosphate coprecipitation as described herein. More specifically, 20 μg of DNA/ml of transfection buffer were used in each transfection. Each transfection mix included 0.5 μg of pRST7hER, 9.5 μg of MMTV-ERE-LUC, 5 μg of pCH110, (which contains the gene for β-galactosidase) as an internal control and 5 μg of PGEM4 DNA as a carrier. […] The concentration of pXVhPR-A vector chosen was determined by performing the experiment at several different concentrations of vector, and then using that concentration that was optimal for transcriptional readout. […] The Normalized LUC activity was calculated by dividing the raw luciferase (×10^4) units for each point by the β-galactosidase activity [(OD415 nm ×10^5)/time min.] at that point.

PR-A = molecular target: T1, PR-A (Homo sapiens, UniProt P06401); assay: PR-A regulation of TAT promoter; type: cell-based; set-up: TAT2950-LUC in HeLa, PRE2 tk-LUC in CV-1/HepG2; details: data not shown
T1 sequence (P06401 165-933): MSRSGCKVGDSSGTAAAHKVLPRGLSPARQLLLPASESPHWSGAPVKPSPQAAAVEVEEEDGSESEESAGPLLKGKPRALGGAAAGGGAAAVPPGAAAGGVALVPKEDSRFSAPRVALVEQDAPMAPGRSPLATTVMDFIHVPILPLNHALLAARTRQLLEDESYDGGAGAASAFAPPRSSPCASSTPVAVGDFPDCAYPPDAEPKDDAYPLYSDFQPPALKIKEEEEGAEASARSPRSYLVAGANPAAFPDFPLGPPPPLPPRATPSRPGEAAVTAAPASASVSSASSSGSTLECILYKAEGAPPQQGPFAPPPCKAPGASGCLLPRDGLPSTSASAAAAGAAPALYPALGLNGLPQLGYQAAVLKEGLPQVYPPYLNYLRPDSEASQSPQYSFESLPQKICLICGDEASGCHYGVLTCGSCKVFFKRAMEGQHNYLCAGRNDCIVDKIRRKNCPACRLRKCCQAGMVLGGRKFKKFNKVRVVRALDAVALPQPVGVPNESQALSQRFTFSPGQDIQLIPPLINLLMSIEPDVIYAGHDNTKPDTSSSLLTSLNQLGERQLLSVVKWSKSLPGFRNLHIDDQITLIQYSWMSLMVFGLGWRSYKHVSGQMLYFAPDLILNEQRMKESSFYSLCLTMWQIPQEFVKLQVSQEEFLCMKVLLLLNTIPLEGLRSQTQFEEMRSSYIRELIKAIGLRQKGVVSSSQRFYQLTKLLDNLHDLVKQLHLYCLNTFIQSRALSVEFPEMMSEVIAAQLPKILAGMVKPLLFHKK
Protocol: FIGS. 4A-4B are a series of graphs showing CV-1 ([…]) or HepG2 (FIG. 4B) cells that were transiently transfected with either […] of phPR-B or phPR-A alone, or phPR-B in the presence of increasing concentrations of phPR-A, together with 5 µg/ml of the PRE2 tk-LUC reporter and 5 µg/ml of pCH110 as an internal control. HeLa cells (FIG. 4C) were transfected with either phPR-B or phPR-A together with 5 µg/ml of the pTAT2950 reporter and 5 µg/ml of pCH110 as an internal control. […] The relative luciferase activity is calculated by dividing the normalized luciferase value at a given point by that obtained in the absence of transfected receptor or ligand. The data shown represent the mean +/- average deviation from the mean of triplicate estimations;
The 2.9 Kb fragment resulting from the digestion of the pTAT-CAT plasmid, and the 6.7 Kb fragment, containing the luciferase gene and the backbone resulting from MMTV-LUC digestion products, were ligated to create the plasmid TAT2950-LUC.
Cells were seeded in 12-well, 96-well or 10 cm tissue culture plates. […] 20 μg of DNA/ml of transfection buffer were used in each transfection reaction. […]

CC(=O)[C@H]1CC[C@H]2[C@@H]3CCC4=CC(=O)CC[C@]4(C)[C@H]3CC[C@]12C [progesterone]
inhibition of ER function with hPR-B (human estrogen receptor): hPR-B will not inhibit
TAT promoter response (PR-A; CV-1, PR-A): unresponsive to either receptor subtype
TAT promoter response to progesterone (PR-A; HepG2, phPR-A): responded to progesterone
